Data set [1] is described as follows: Solubility in water and in ethanol. Format: physicochemical. The source says: The solubilities of quercetin in water and in ethanol are, by contrast, only 0.04 g/l and 15.8 g/l respectively.
For data set [2] the following is noted: compared with the other investigated hydroxyflavones, over the entire pH range; cited from earlier work.

As usually defined, the solubility is the dissolved amount per volume that the medium holds.

In brackets after ≈: the same amount, converted by molar mass. Read-outs that look alike come from different tables or passages of the source.

Regarding `CCCCOC1(c2ccc(O)c(O)c2)Oc2cc(O)cc(O)c2C(=O)C1(O)O` (stereo not shown) [2-butoxy-2-(3,4-dihydroxyphenyl)-3,3,5,7-tetrahydroxychroman-4-one], the solubility in data set [1] (25 °C, organic solvent or mixture) stood at 855 mg/mL (≈ 2180 mM); in data set [1] (25 °C, water), 2.9 mg/mL (≈ 7.39 mM).
For `O=c1c(O)c(-c2ccc(O)c(O)c2)oc2cc(O)cc(O)c12` [quercetin, 3,3′,4′,5,7-pentahydroxyflavone], the antioxidative action result in data set [2] is “highest activity”. For the same compound, the solubility in data set [1] (organic solvent or mixture, at 25° C. in ethanol, read-out: solubility in ethanol) is 15.8 mg/mL (≈ 52.3 mM).
